# What was measured:
# ICR mice = experiment: Serum uric acid-lowering action after oral administration; format: in vivo; details: after 2 hours from oral administration, 1 mg/kg
# Description: A test compound was orally administered compulsorily to ICR mice using an oral sonde. After 2 hours, 6 hours, and, depending on the compound, further 24 hours from the administration, blood was collected from an abdominal aorta and then serum was separated in a usual manner. Serum uric acid was measured on an absorptiometer (SPECTRA MAX 190, manufactured by Molecular Device) by an uricase method using a uric acid-measuring kit (Uric Acid C-TestWako: Wako Pure Chemical Industries, Ltd.) and a uric acid-lowering ratio was determined according to the following equation. Uric acid-lowering ratio (%)=(Uric acid level of control animal−Uric acid level of test compound-administered animal)×100/Uric acid level of control animal
# [1] = target: T1, xanthine oxidase (derived from butter milk) (Bos taurus, UniProt P80457); experiment: Xanthine oxidase-inhibitory activity (pterin oxidation, fluorescence); format: biochemical; details: xanthine oxidase 0.03 units/ml, pterin 5 μM
# T1 construct: xanthine oxidase (derived from butter milk, manufactured by Sigma); purchased Sigma; host or cells: buttermilk (natural source)
# T1 sequence (P80457 whole entry): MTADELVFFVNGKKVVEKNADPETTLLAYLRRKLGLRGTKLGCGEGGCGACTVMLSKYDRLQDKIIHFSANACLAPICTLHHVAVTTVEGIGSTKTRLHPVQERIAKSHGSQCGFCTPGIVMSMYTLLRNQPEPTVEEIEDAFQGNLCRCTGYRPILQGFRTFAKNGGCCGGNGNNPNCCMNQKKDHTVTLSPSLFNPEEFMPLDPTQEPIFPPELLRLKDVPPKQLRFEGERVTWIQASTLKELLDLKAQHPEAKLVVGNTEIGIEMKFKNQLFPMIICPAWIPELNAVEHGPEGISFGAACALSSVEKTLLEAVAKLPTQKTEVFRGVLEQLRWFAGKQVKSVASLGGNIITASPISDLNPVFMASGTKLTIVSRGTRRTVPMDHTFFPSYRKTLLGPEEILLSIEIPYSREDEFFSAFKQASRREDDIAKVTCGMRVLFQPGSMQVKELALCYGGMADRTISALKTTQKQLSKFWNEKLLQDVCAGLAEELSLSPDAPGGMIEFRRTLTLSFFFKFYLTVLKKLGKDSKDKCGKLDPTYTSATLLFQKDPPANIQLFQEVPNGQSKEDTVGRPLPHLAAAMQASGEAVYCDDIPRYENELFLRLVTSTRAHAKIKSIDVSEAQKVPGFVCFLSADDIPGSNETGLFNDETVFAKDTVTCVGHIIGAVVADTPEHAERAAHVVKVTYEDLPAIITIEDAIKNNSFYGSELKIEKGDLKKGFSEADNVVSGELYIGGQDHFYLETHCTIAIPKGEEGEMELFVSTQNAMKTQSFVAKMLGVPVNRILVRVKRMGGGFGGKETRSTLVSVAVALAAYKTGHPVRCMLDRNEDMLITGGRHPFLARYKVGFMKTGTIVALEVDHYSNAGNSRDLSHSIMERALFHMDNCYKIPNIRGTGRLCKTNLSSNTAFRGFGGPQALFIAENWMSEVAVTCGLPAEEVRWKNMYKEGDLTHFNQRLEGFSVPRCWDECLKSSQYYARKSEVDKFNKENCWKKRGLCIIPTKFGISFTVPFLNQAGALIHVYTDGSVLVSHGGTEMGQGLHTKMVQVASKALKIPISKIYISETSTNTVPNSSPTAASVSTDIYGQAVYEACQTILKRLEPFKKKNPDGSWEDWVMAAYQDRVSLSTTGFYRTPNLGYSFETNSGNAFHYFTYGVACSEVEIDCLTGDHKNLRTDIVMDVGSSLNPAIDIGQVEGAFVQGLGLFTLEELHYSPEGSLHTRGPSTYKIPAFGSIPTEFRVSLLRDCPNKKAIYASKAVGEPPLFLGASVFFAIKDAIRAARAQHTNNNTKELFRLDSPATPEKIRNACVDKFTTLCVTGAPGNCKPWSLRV
# Description: A test compound was dissolved in DMSO (manufactured by Nakarai) so as to be a concentration of 10 mM and then used after the concentration was adjusted to an aimed one at use.
# The evaluation of xanthine oxidase-inhibitory activity of the compound of the invention was carried out using a method described in a document (Free Radic. Biol. Med. 6, 607-615, 1992) with partial modification. Namely, xanthine oxidase (derived from butter milk, manufactured by Sigma) was adjusted to 0.03 units/ml using a 50 mM phosphate buffer and was added to a 96-well plate in an amount of 50 μl/well. Each test compound diluted so as to be a final concentration was added thereto in an amount of 2 μl/well, followed by treatment at room temperature for 20 minutes. Pterin (manufactured by Sigma) was added thereto so as to be a final concentration of 5 μM, followed by reaction at room temperature for 10 minutes. Measurement was performed using a microplate reader saphire (manufactured by Tecan) under conditions of excitation at 345 nm and emission at 390 nm (pterin was oxidized by xanthine oxidase into isoxanthopterin, which emitted a light under the conditions).
# The concentration of the test compound at which 50% inhibition was observed (IC50 value) was calculated, the emissions of isoxanthopterin under conditions of the presence or absence of xanthine oxidase being 0% inhibition and 100% inhibition, respectively.
# male Wistar rats = experiment: Trinitrobenzenesulfonic acid (TNBS)-induced enteritis-inhibitory action; format: in vivo, rat; details: 3 mg/kg oral once a day, 21st day
# Description: The effectiveness of the compound of the invention on an enteritis model can be also evaluated by a model using trinitrobenzenesulfonic acid (TNBS) as an inducing agent instead of acetic acid (Cell. Mol. Biol, 38, 189-199, 1992). Thus, referring to the method described in the report, the enteritis-suppressing action of the compound of the invention was evaluated.
# Namely, TNBS or physiological saline as a normal group was administered into the rectum of male Wistar rats of 200 to 250 g. Thereafter, a test compound or 0.5% methyl cellulose (control group) was orally administered once a day and dissection was performed on each administered group on 21st day. A part of the large intestine 2 to 7 cm from the anus side was cut out and incised. After feces were removed by means of tweezers, the part was washed and a score of morbid conditions was evaluated and tissue weight was measured. The score of morbid conditions and a tissue weight increase-suppressing ratio were calculated as in the evaluation method of the above acetic acid-induced enteritis-suppressing action.
# [2] = tested on: pyrimidine synthetic pathway; experiment: Pyrimidine synthetic pathway-inhibitory action (influence on BUN level); format: in vivo; details: oral administration of 30 mg/kg
# Text: Allopurinol which is an existing hyperuricemia therapeutic drug is known to cause renal dysfunction as an undesirable action. As mentioned previously, since allopurinol has a nucleic acid-like structure, as one cause thereof, it is presumed that it inhibits pyrimidine synthetic pathway. […] Thus, according to the method described in the document, the influence of the compounds of the invention on a BUN level was confirmed.
IC50 [1] [nM],SMILES,other results
3.2,"CCCOc1ccc(-c2ccc(C(=O)[O-])s2)cc1C#N.[Na+] [Example 1, sodium 5-(3-cyano-4-n-propoxyphenyl)thiophene-2-carboxylate]",uric acid-lowering ratio (ICR mice): 66%; suppression of intestinal tissue weight increase (male Wistar rats): ≥ 70%; inhibitory action on pyrimidine synthetic pathway (influence on BUN level) [2]: no inhibitory action
2.9,"CC(C)CSc1ccc(-c2ccc(C(=O)O)s2)cc1C#N [Example 9, sodium 5-[3-cyano-4-(isobutylthio)phenyl]thiophene-2-carboxylate]",–
5.1,N#Cc1cc(-c2ccc(C(=O)O)s2)ccc1OCCn1cccc1 [Example 22],–
2.5,N#Cc1cc(-c2ccc(C(=O)O)s2)ccc1OCc1ccccc1 [Example 24],–
1.8,N#Cc1cc(-c2ccc(C(=O)O)s2)ccc1N1CCCCC1 [Example 27],–
2,CC1CCN(c2ccc(-c3ccc(C(=O)O)s3)cc2C#N)CC1 [Example 30],–
5.9,CC(=O)c1cc(-c2ccc(C(=O)O)s2)ccc1OC1CCCC1 [Example 33],–
6.3,N#Cc1cc(-c2ccc(C(=O)O)s2)ccc1Oc1ccccc1 [Example 34],–

# More lines, now with the values behind:
SMILES,IC50 [1] [nM],other results
"CC(C)COc1ccc(-c2ccc(C(=O)O)s2)cc1[N+](=O)[O-] [Example 3, 5-(3-nitro-4-isobutoxyphenyl)thiophene-2-carboxylic acid]",6.9,–
"CC(C)COc1ccc(-c2cc(F)c(C(=O)O)s2)cc1C#N [Example 4, sodium 5-(3-cyano-4-isobutoxyphenyl)-3-fluorothiophene-2-carboxylate]",2.2,–
"CC(C)COc1ccc(-c2ccc(-c3nnn[nH]3)s2)cc1[N+](=O)[O-] [Example 5, 5-[5-(4-isobutoxy-3-nitrophenyl)-2-thienyl]-1H-tetrazole]",9.3,–
"CCCCN(C)c1ccc(-c2ccc(C(=O)O)s2)cc1C#N [Example 8, sodium 5-{4-[butyl(methyl)amino]-3-cyanophenyl)thiophene-2-carboxylate]",4.1,–
N#Cc1cc(-c2ccc(C(=O)O)s2)ccc1OCc1cccnc1 [Example 19],2.8,–
N#CCCCOc1ccc(-c2ccc(C(=O)O)s2)cc1C#N [Example 23],13,–
N#Cc1cc(-c2cc(F)c(C(=O)O)s2)ccc1OC/C=C/c1ccccc1 [Example 47],3.7,–
CC(C)COc1c(F)cc(-c2ccc(C(=O)O)s2)cc1C#N [Example 54],1.5,–

# Source: patent US7612108B2, “2-phenylthiophene derivative” (Astellas Pharma Inc., priority 2004, dated 2009)
